Assay results from patent US20240009122A1, “Small Molecule Formulation” (Dialectic Therapeutics, Inc., priority 2020, published 2024).

Assay: Solubility of Compound 1 (statement)
Assay type: physicochemical
Excerpt: While Compound 1 is an example of a small molecule with a number of polar functional groups. […] These organic polar solvents, however, are not typically pharmaceutically acceptable for use in drug formulation.

With `Cc1ncsc1-c1ccc([C@H](C)NC(=O)[C@@H]2C[C@@H](O)CC2C(=O)[C@@H](NC(=O)CCCCCC(=O)N2CCN(CC[C@H](CSc3ccccc3)Nc3ccc(S(=O)(=O)NC(=O)c4ccc(N5CCN(CC6=C(c7ccc(Cl)cc7)CCC(C)(C)C6)CC5)cc4)cc3S(=O)(=O)C(F)(F)F)CC2)C(C)(C)C)cc1` (some centres unmarked) [Compound 1] as the molecule, how does the “Solubility in organic polar solvents” value read?
The value was “sufficiently soluble”.

And the “Solubility in water or water based solvent mixtures” value?
Its value is “not sufficiently soluble”.
